{"source": "paper PMC11847258", "about": "“Phase I trial of the combination of the pan-ErbB inhibitor neratinib and mTOR inhibitor everolimus in advanced cancer patients with ErbB family gene alterations” (ESMO Open, 2025)", "key": {"[1]": {"settings": "cited from earlier work"}, "[2]": {"test": "Plasma pharmacokinetics on cycle 1, day 15 (LC/MS, noncompartmental analysis)", "format": "in vivo, human", "settings": "for AUC(0-t): read-out: AUC0-24; for clearance: read-out: CLss (converted); for concentration at 24 h: read-out: Ctau or C24", "protocol": "Pharmacokinetic (PK) analysis was conducted on cycle 1, day 15 for both everolimus and neratinib with blood samples collected at pre-dose, 1, 3, 4, 6, 8, and 24 hours post-dose. Following good clinical and laboratory practices, blood was collected into K2-EDTA vacutainers, gently inverted and mixed, then centrifuged at 3000 rpm (1500 g) for 10 min at 4°C. The resultant plasma was placed into cryovials and frozen at −70°C until analysis."}, "[3]": {"settings": "cited from earlier work", "remark": "listed apart in the source"}, "[4]": {"settings": "monotherapy 5mg, N=4, ref O’Donnell et.al."}, "[5]": {"settings": "monotherapy 10mg, N=33, ref O’Donnell et.al."}, "[6]": {"settings": "monotherapy 10mg, N=33, ref O’Donnell et.al., listed as everolimus"}, "[7]": {"settings": "Dose Level 2: neratinib 200mg/day + everolimus 5mg/day, n=3, Cycle 1, Day 15, mean (range)"}, "[8]": {"settings": "Dose Level 4: neratinib 240mg/day + everolimus 7.5mg/day, n=5, Cycle 1, Day 15, mean (range)"}, "[9]": {"settings": "human, plasma, oral, Dose Level 2: neratinib 200mg/day + everolimus 5mg/day, n=3, Cycle 1, Day 15, mean (range)"}, "[10]": {"settings": "human, plasma, oral, Dose Level 2: neratinib 200mg/day + everolimus 5mg/day, n=3, Cycle 1, Day 15, mean (range), read-out: Tmax"}, "[11]": {"settings": "human, plasma, oral, Dose Level 4: neratinib 240mg/day + everolimus 7.5mg/day, n=5, Cycle 1, Day 15, mean (range)"}, "[12]": {"settings": "monotherapy 240mg, N=3, ref Wong et.al."}, "[13]": {"settings": "monotherapy 240mg, N=3, ref Wong et.al., listed as neratinib"}}, "note": "Like-named read-outs stand apart in the source and are kept apart here."}
{"smiles": "CO[C@H]1C[C@@H]2CC[C@@H](C)[C@@](O)(O2)C(=O)C(=O)N2CCCC[C@H]2C(=O)O[C@H]([C@H](C)C[C@@H]2CC[C@@H](OCCO)[C@H](OC)C2)CC(=O)[C@H](C)/C=C(\\C)[C@@H](O)[C@@H](OC)C(=O)[C@H](C)C[C@H](C)/C=C/C=C/C=C/1C", "note": "[Everolimus, everolimus]", "values": [{"measurement": "TRAE all grades: Anemia", "setting": "[1]; [4]", "value": "1 (25)"}, {"measurement": "TRAE all grades: Anorexia", "setting": "[1]; [4]", "value": "1 (25)"}, {"measurement": "TRAE all grades: Constipation", "setting": "[1]; [4]", "value": "1 (25)"}, {"measurement": "TRAE all grades: Mucositis", "setting": "[1]; [4]", "value": "2 (50)"}, {"measurement": "TRAE all grades: Nausea", "setting": "[1]; [4]", "value": "1 (25)"}, {"measurement": "TRAE all grades: Pruritus", "setting": "[1]; [4]", "value": "1 (25)"}, {"measurement": "TRAE all grades: Rash", "setting": "[1]; [4]", "value": "2 (50)"}, {"measurement": "Grade ≥ 3 treatment-related: Anorexia", "setting": "[1]; [5]", "value": "2 (6.1)"}, {"measurement": "Grade ≥ 3 treatment-related: Dyspnea", "setting": "[1]; [5]", "value": "1 (3)"}, {"measurement": "Grade ≥ 3 treatment-related: Epistaxis", "setting": "[1]; [5]", "value": "1 (3)"}, {"measurement": "Grade ≥ 3 treatment-related: GI hemorrhage", "setting": "[1]; [5]", "value": "1 (3)"}, {"measurement": "Grade ≥ 3 treatment-related: Hyperglycemia", "setting": "[1]; [5]", "value": "2 (6.1)"}, {"measurement": "Grade ≥ 3 treatment-related: Hypertriglyceridemia", "setting": "[1]; [5]", "value": "1 (3)"}, {"measurement": "Grade ≥ 3 treatment-related: Mucositis", "setting": "[1]; [5]", "value": "2 (6.1)"}, {"measurement": "Grade ≥ 3 treatment-related: Nausea", "setting": "[1]; [5]", "value": "1 (3)"}, {"measurement": "Grade ≥ 3 treatment-related: Pneumonia", "setting": "[1]; [5]", "value": "1 (3)"}, {"measurement": "Grade ≥ 3 treatment-related: Rash", "setting": "[1]; [5]", "value": "1 (3)"}, {"measurement": "Grade ≥ 3 treatment-related: Thrombocytopenia", "setting": "[1]; [5]", "value": "2 (6.1)"}, {"measurement": "TRAE all grades: Anorexia", "setting": "[1]; [5]", "value": "11 (33.3)"}, {"measurement": "TRAE all grades: Constipation", "setting": "[1]; [5]", "value": "7 (21.2)"}, {"measurement": "TRAE all grades: Diarrhea", "setting": "[1]; [5]", "value": "7 (21.2)"}, {"measurement": "TRAE all grades: Fatigue", "setting": "[1]; [5]", "value": "12 (36.4)"}, {"measurement": "TRAE all grades: Headache", "setting": "[1]; [5]", "value": "7 (21.2)"}, {"measurement": "TRAE all grades: Mucositis", "setting": "[1]; [5]", "value": "17 (51.5)"}, {"measurement": "TRAE all grades: Nausea", "setting": "[1]; [5]", "value": "14 (42.4)"}, {"measurement": "TRAE all grades: Rash", "setting": "[1]; [5]", "value": "20 (60.6)"}, {"measurement": "TRAE all grades: Vomiting", "setting": "[1]; [5]", "value": "5 (15.2)"}, {"measurement": "TRAE all grades: Mucositis", "setting": "[1]; [6]", "value": 51.5}, {"measurement": "TRAE all grades: Nausea", "setting": "[1]; [6]", "value": 42.4}, {"measurement": "TRAE all grades: Rash", "setting": "[1]; [6]", "value": 60.6}, {"measurement": "Tmax", "setting": "[1]; single agent", "value": "1 to 2", "unit": "h"}, {"measurement": "dose with acceptable tolerability suggested by PK analysis (MTD undetermined)", "setting": "[1]; single agent", "value": 10, "unit": "mg/day"}, {"measurement": "AR (accumulation ratio)", "setting": "[2]; [7]", "value": "1.2 (1.1-1.3)"}, {"measurement": "Ctau or C24", "setting": "[2]; [7]", "value": "0.42 (0-1.1) ng/mL"}, {"measurement": "AR (accumulation ratio)", "setting": "[2]; [8]", "value": "1.7 (1-2.6)"}, {"measurement": "Ctau or C24", "setting": "[2]; [8]", "value": "2.8 (0-9.9) ng/mL"}, {"measurement": "Tmax", "setting": "[2]; [8]", "value": 4.8, "unit": "h"}, {"measurement": "AUC(0-inf)", "setting": "[2]; [9]", "value": 53.8, "unit": "ng·h/mL"}, {"measurement": "Cmax", "setting": "[2]; [9]", "value": 3.58, "unit": "ng/mL"}, {"measurement": "half-life", "setting": "[2]; [9]", "value": 8.2, "unit": "h"}, {"measurement": "AUC(0-t)", "setting": "[2]; [9]", "value": 24.3, "unit": "ng·h/mL"}, {"measurement": "clearance", "setting": "[2]; [9]", "value": 3370, "unit": "mL/min"}, {"measurement": "concentration at 24 h", "setting": "[2]; [9]", "value": 0.42, "unit": "ng/mL"}, {"measurement": "Tmax", "setting": "[2]; [10]", "value": 4.33, "unit": "h"}, {"measurement": "AUC(0-inf)", "setting": "[2]; [11]", "value": 253, "unit": "ng·h/mL"}, {"measurement": "Cmax", "setting": "[2]; [11]", "value": 8.5, "unit": "ng/mL"}, {"measurement": "half-life", "setting": "[2]; [11]", "value": 16.8, "unit": "h"}, {"measurement": "AUC(0-t)", "setting": "[2]; [11]", "value": 116, "unit": "ng·h/mL"}, {"measurement": "clearance", "setting": "[2]; [11]", "value": 2300, "unit": "mL/min"}, {"measurement": "concentration at 24 h", "setting": "[2]; [11]", "value": 2.8, "unit": "ng/mL"}, {"measurement": "Tmax", "setting": "[2]; human, plasma, oral, both groups (DL 2 and DL 4), with neratinib, read-out: mean Tmax", "value": "> 4", "unit": "h"}]}
{"smiles": "CCOc1cc2ncc(C#N)c(Nc3ccc(OCc4ccccn4)c(Cl)c3)c2cc1NC(=O)/C=C/CN(C)C", "note": "[Neratinib, neratinib]", "values": [{"measurement": "TRAE all grades: Anorexia", "setting": "[3]; [12]", "value": "2 (67)"}, {"measurement": "TRAE all grades: Diarrhea", "setting": "[3]; [12]", "value": "3 (100)"}, {"measurement": "TRAE all grades: Fatigue", "setting": "[3]; [12]", "value": "2 (67)"}, {"measurement": "TRAE all grades: Nausea", "setting": "[3]; [12]", "value": "2 (67)"}, {"measurement": "TRAE all grades: Rash", "setting": "[3]; [12]", "value": "1 (33)"}, {"measurement": "TRAE all grades: Vomiting", "setting": "[3]; [12]", "value": "1 (33)"}, {"measurement": "TRAE all grades: Anorexia", "setting": "[3]; [13]", "value": 67}, {"measurement": "TRAE all grades: Diarrhea", "setting": "[3]; [13]", "value": 100}, {"measurement": "TRAE all grades: Fatigue", "setting": "[3]; [13]", "value": 67}, {"measurement": "TRAE all grades: Nausea", "setting": "[3]; [13]", "value": 67}, {"measurement": "MTD", "setting": "[3]; monotherapy", "value": 320, "unit": "mg"}, {"measurement": "AR (accumulation ratio)", "setting": "[2]; [7]", "value": "1.41(1.2-1.9)"}, {"measurement": "AUC0-∞", "setting": "[2]; [7]", "value": "910 (195-2125) ng*h/mL"}, {"measurement": "Ctau or C24", "setting": "[2]; [7]", "value": "13.6 (2.6-31.8) ng/mL"}, {"measurement": "AR (accumulation ratio)", "setting": "[2]; [8]", "value": "2.29 (1.4-3.8)"}, {"measurement": "Ctau or C24", "setting": "[2]; [8]", "value": "44 (14.5-125) ng/mL"}, {"measurement": "Cmax", "setting": "[2]; [9]", "value": 35.8, "unit": "ng/mL"}, {"measurement": "half-life", "setting": "[2]; [9]", "value": 13.1, "unit": "h"}, {"measurement": "AUC(0-t)", "setting": "[2]; [9]", "value": 400, "unit": "ng·h/mL"}, {"measurement": "clearance", "setting": "[2]; [9]", "value": 9970, "unit": "mL/min"}, {"measurement": "concentration at 24 h", "setting": "[2]; [9]", "value": 13.6, "unit": "ng/mL"}, {"measurement": "Tmax", "setting": "[2]; [10]", "value": 4.8, "unit": "h"}, {"measurement": "AUC(0-inf)", "setting": "[2]; [11]", "value": 3930, "unit": "ng·h/mL"}, {"measurement": "Cmax", "setting": "[2]; [11]", "value": 83.4, "unit": "ng/mL"}, {"measurement": "half-life", "setting": "[2]; [11]", "value": 28.6, "unit": "h"}, {"measurement": "AUC(0-t)", "setting": "[2]; [11]", "value": 1170, "unit": "ng·h/mL"}, {"measurement": "clearance", "setting": "[2]; [11]", "value": 4820, "unit": "mL/min"}, {"measurement": "concentration at 24 h", "setting": "[2]; [11]", "value": 44, "unit": "ng/mL"}, {"measurement": "Tmax", "setting": "[2]; human, plasma, oral, Dose Level 4: neratinib 240mg/day + everolimus 7.5mg/day, n=5, Cycle 1, Day 15, mean (range), read-out: Tmax", "value": 4.2, "unit": "h"}]}
